Data: US5798372A, “Method for preventing onset of restenosis after angioplasty employing a retinoid” (Allergan, priority 1997, dated 1998)

Key:
[1] = test system: smooth muscle cells (canine aorta); assay: Serum (1%)-induced smooth muscle cell proliferation, 3H-thymidine incorporation; assay type: cell-based; settings: Canis lupus familiaris; serum induced; Table 3; read-out: ED50 FOR SMOOTH MUSCLE CELLS, Serum
Experimental: (§1) The effect of 1% serum on DNA synthesis by endothelial or smooth muscle cells using ^3 H-thymidine incorporation was measured. For measuring the effectiveness of retinoids in inhibiting endothelial or smooth muscle cell proliferation induced by certain mitogens, i.e., serotonin or β-FGF the indicated concentrations were added to the media instead of 1% serum. Primary cells isolated from canine aorta were used for these studies. Unlike the typical cell lines (e.g. NIH 3T3 cells, etc.) 6-7 weeks are required to isolate and grow these primary cells in sufficient number to perform a single experiment. For the following studies, the primary cells (passages 2-4) were plated on 35×10 mm tissue culture dishes in 10% fetal bovine serum (FBS) and incubated. After 72 hours of growth the medias was replaced with 0.1% FBS for synchronization and incubated for additional 72 hours. Then 1% serum was added and incubated for 20 hours followed by the addition of 1μCi of ^3 H-thymidine. Four hours after the addition of 3H-thymidine the DNA was precipitated and the amount of ^3 H-thymidine incorporated was measured. This value is reported as the serum or serotonin or β-FGF stimulated value for cellular proliferation and is expressed as a percentage of baseline ^3 H-thymidine incorporation.
(§2) To examine the antiproliferative effect of retinoids, they were dissolved in 100% ethanol and then added at the indicated final concentrations. The compounds were added at the time of adding 1% serum or serotonin or β-FGF to stimulate the cells. (The maximal final concentration of ethanol in culture media was 1% which is non-cytotoxic to endothelial or smooth muscle cells). After 20 hours of incubation with retinoids and 1% serum or serotonin or β-FGF, the ^3 H-thymidine incorporation was measured.
(§3) In this experimental dosages ranging between 0.01 and 100 μM were evaluated for the effect of AGN 191183 on cell growth.
(§4) The other retinoids, disclosed above, were also tested for their effect on smooth muscle and endothelial cell growth at the same dosages as for AGN 191183. Table 2 reports the ED50 for each of these retinoids.

[2] = test system: endothelial cells (canine aorta); assay: Serum (1%)-induced endothelial cell proliferation, 3H-thymidine incorporation; assay type: cell-based; settings: Canis lupus familiaris, Endothelial cell; serum induced; Table 3; read-out: ED50 FOR ENDOTHELIAL Cells, Serum
Experimental: as §1, §2, §3, §4

[3] = test system: smooth muscle cells (canine aorta); assay: Serotonin-induced smooth muscle cell proliferation, 3H-thymidine incorporation; assay type: cell-based; settings: Canis lupus familiaris, Table 3, read-out: ED50 FOR SMOOTH MUSCLE CELLS, Serotonin
Experimental: as §1
as §2, with “(The maximal final concentration of ethanol in culture media was 1% which is non-cytotoxic to endothelial or smooth muscle cells).” left out
(§5) Certain of the retinoids were then tested for mitogen-induced cellular proliferation, utilizing serotonin (5HT) and β-FGF as such mitogens. In this testing, as reported in Table 3, below, the same dosages were evaluated for their effect on mitogen-induced cellular proliferation (The results are reported as ED50 and compared to the ED50 for serum-induced smooth muscle and endothelial cell growth).

[4] = test system: endothelial cells (canine aorta); assay: Serotonin-induced endothelial cell proliferation, 3H-thymidine incorporation; assay type: cell-based; settings: Canis lupus familiaris, Table 3, read-out: ED50 FOR ENDOTHELIAL Cells, Serotonin
Experimental: as §1
as §2, with “(The maximal final concentration of ethanol in culture media was 1% which is non-cytotoxic to endothelial or smooth muscle cells).” left out
as §5

[5] = test system: smooth muscle cells (canine aorta); assay: β-FGF-induced smooth muscle cell proliferation, 3H-thymidine incorporation; assay type: cell-based; settings: Canis lupus familiaris, Table 3, read-out: ED50 FOR SMOOTH MUSCLE CELLS, β-FGF
Experimental: as §1
as §2, with “(The maximal final concentration of ethanol in culture media was 1% which is non-cytotoxic to endothelial or smooth muscle cells).” left out
as §5

[6] = test system: endothelial cells (canine aorta); assay: β-FGF-induced endothelial cell proliferation, 3H-thymidine incorporation; assay type: cell-based; settings: Canis lupus familiaris, Table 3, read-out: ED50 FOR ENDOTHELIAL Cells, β-FGF
Experimental: as §1
as §2, with “(The maximal final concentration of ethanol in culture media was 1% which is non-cytotoxic to endothelial or smooth muscle cells).” left out
as §5

[7] = test system: cellular proliferation at the site of vascular injury (balloon angioplasty); assay: Rabbit model of angioplasty-induced arterial injury, in vivo 3H-thymidine incorporation; design: species or system New Zealand white rabbits; settings: 10 mg/kg IP daily
Description: There has been interest in attempting to reduce the incidence of restenosis by minimizing the trauma of angioplasty. […] However, a similar relationship between the degree of injury and restenosis has not been documented with conventional balloon angioplasty. In order to better characterize the time course and degree of cellular proliferation resulting from vascular injury, the effect of retinoids on the in vivo incorporation of 3H-thymidine in a rabbit model of arterial injury was studied. Varying degrees of injury were produced including both simple de-endothelialization of the intima as well as stretch injury of the vessel by conventional angioplasty.
3.0-3.5 kg male, New Zealand white rabbits underwent standardized femoral artery injury. Arterial access was obtained through the right carotid artery which was ligated after the procedure. Heparin (100 U/kg IV) was given once arterial access was obtained. Injury was accomplished by the following method:
1. […]
Arterial specimens were then thawed and stripped of all adventitia. […] The samples were neutralized with 0.5N HCl and counted using multisol scintillation fluid.
Using the above described model of angioplasty induced restenosis it was determined whether chronic treatment with all trans retinoic acid can attenuate the cellular proliferation of the site of vascular injury. […]

CC1=C(/C=C/C(C)=C/C=C/C(C)=C/C(=O)O)C(C)(C)CCC1 [AGN 100335, (E)-3,7-dimethyl-9-(2,6,6-trimethyl-1-cyclohexen-1-yl)-2,4,6,8-nonatetraenoic acid]
IC50 [1]: 35.8 µM | IC50 [2]: 28 µM | IC50 [3]: 0.047 µM | IC50 [4]: 0.025 µM | IC50 [5]: > 100 µM | IC50 [6]: 0.009 µM | animals receiving retinoic acid that died before the study was completed [7]: 2 out of 4 | inhibition of cellular proliferation following angioplasty ([7]; 6 days pretreatment and days 7-9, very small number of animals): appeared to inhibit the development of cellular proliferation following angioplasty
